In patent US20170304388A1, “NEW INDICATION OF CARDIOVASCULAR DRUGS FOR PREPARATION OF CANCER INHIBITION PHARMACEUTICAL COMPOSITION” (LAUNX BIOMEDICAL CO., LTD., priority 2014, published 2017):
Counter-ions that a name gives are not always drawn. Like-named read-outs stand apart in the source and are kept apart here.

What was measured:
Type in all cases: cell-based
[1] = test system: H1650 (Lung Adenocarcinoma); assay: Cell viability analysis (WST-1), H1650; details: WST-1, OD450 nm; for viability at 10 µM: Homo sapiens, read-out: survival rate (viability) of cancer cells, H1650
[2] = test system: TSGH-8301 (Urinary Bladder Carcinoma); assay: Cell viability analysis (WST-1), TSGH-8301; details: WST-1, OD450 nm; for viability at 10 µM: read-out: survival rate (viability) of cancer cells, TSGH
[3] = test system: MCF7 (Mammary Gland, Adenocarcinoma); assay: Cell viability analysis (WST-1), MCF7; details: WST-1, OD450 nm; for viability at 10 µM: Homo sapiens, read-out: survival rate (viability) of cancer cells, MCF7
[4] = test system: AGS (Gastric Adenocarcinoma); assay: Cell viability analysis (WST-1), AGS; details: WST-1, OD450 nm; for viability at 10 µM: read-out: survival rate (viability) of cancer cells, AGS
[5] = test system: HeLa (Cervix Adenocarcinoma); assay: Cell viability analysis (WST-1), HeLa; details: Homo sapiens, HeLa, WST-1, OD450 nm, read-out: survival rate (viability) of cancer cells, HeLa
[6] = test system: A549 (Lung Adenocarcinoma); assay: Cell viability analysis (WST-1), A549; details: WST-1, OD450 nm; for viability at 10 µM: Homo sapiens, read-out: survival rate (viability) of cancer cells, A549
[7] = test system: A375 (Amelanotic Melanoma); assay: Cell viability analysis (WST-1), A375; details: WST-1, OD450 nm, lower viability = better inhibition; for viability at 10 µM: Homo sapiens, read-out: survival rate (viability) of cancer cells, A375
[8] = test system: PC3 (Prostate Adenocarcinoma); assay: Cell viability analysis (WST-1), PC3; details: WST-1, OD450 nm; for viability at 10 µM: read-out: survival rate (viability) of cancer cells, PC3
[9] = test system: LoVo (Colorectal Adenocarcinoma); assay: Cell viability analysis (WST-1), LoVo; details: WST-1, OD450 nm; for viability at 10 µM: Homo sapiens, LoVo, read-out: survival rate (viability) of cancer cells, LoVo
[10] = test system: MKN-45 (Gastric Adenocarcinoma); assay: Cell viability analysis (WST-1), MKN-45; details: WST-1, OD450 nm; for viability at 10 µM: Homo sapiens, read-out: survival rate (viability) of cancer cells, MKN-45
cancer cell lines = assay: Growth inhibitory effects on the panel of cancer cell lines; details: drug 10 μM, 72 hours; for Numbers of inhibitory effect on cancer cell line: count of cancer cell lines inhibited; for inhibition effect on different cancer cell lines (in words): WST-1
[11] = test system: HepG2 (Hepatocellular Carcinoma); assay: Cell viability analysis (WST-1), HepG2; details: WST-1, OD450 nm; for viability at 10 µM: Homo sapiens, read-out: survival rate (viability) of cancer cells, HepG2
[12] = test system: HCT116 (Colorectal Carcinoma); assay: Cell viability analysis (WST-1), HCT116; details: WST-1, OD450 nm; for viability at 10 µM: Homo sapiens, HCT-116, 72 h, Table 3, drug 10 μM, read-out: survival rate (viability) of cancer cells, HCT116 (WT); for survival rate (viability) of cancer cells, HCT116 (WT): Table 3, drug 10 μM, 72 hours
[13] = test system: HL-60 (Acute Promyelocytic Leukemia); assay: Cell viability analysis (WST-1), HL-60; details: Table 3, drug 10 μM, 72 hours, WST-1, OD450 nm; for viability at 10 µM: Homo sapiens, HL-60, read-out: survival rate (viability) of cancer cells, HL-60
[14] = NCI-H1650, 72 h, Table 3, drug 10 μM
[15] = MCF7, 72 h, Table 3, drug 10 μM
[16] = A549, 72 h, Table 3, drug 10 μM
[17] = A-375, 72 h, Table 3, drug 10 μM
[18] = MKN-45, 72 h, Table 3, drug 10 μM
[19] = HepG2, 72 h, Table 3, drug 10 μM

| Molecule | viability at 10 µM [1, 14] [%] | viability at 10 µM ([2]; 72 h, Table 3, drug 10 μM) [%] | viability at 10 µM [3, 15] [%] | viability at 10 µM ([4]; 72 h, Table 3, drug 10 μM) [%] | viability at 10 µM ([5]; 72 h, Table 3, drug 10 μM) [%] | viability at 10 µM [6, 16] [%] | viability at 10 µM [7, 17] [%] | viability at 10 µM ([8]; 72 h, Table 3, drug 10 μM) [%] | viability at 10 µM ([9]; 72 h, Table 3, drug 10 μM) [%] | viability at 10 µM [10, 18] [%] | Numbers of inhibitory effect on cancer cell line (cancer cell lines) | inhibition effect on different cancer cell lines (in words) (cancer cell lines) | viability at 10 µM [11, 19] [%] | viability at 10 µM [12] [%] | viability at 10 µM [13] [%] | other results |
| --- | --- | --- | --- | --- | --- | --- | --- | --- | --- | --- | --- | --- | --- | --- | --- | --- |
| CC1Cc2ccccc2N1NC(=O)c1ccc(Cl)c(S(N)(=O)=O)c1 (stereo not drawn) [Indapamide (Lozol), Indapamide] | 86.7 | 85 | 65.5 | 109 | 67.9 | 106 | 64.8 | 76.8 | 92.7 | 105 | 0 | significant inhibition effect | 84 | 80 |  |  |
| Cc1cccc(Nc2ccccc2C(=O)O)c1C [Mefenamic acid] | 73.9 | 118 | 95.3 | 71.1 | 76.1 | 116 | 78.7 | 103 | 83.3 | 115 | 0 | significant inhibition effect |  | 85.9 | 113 |  |
| COc1ccc([C@H]2CNC(=O)C2)cc1OC1CCCC1 [S-(+)-Rolipram] |  |  |  |  |  |  |  |  |  |  | 0 | significant inhibition effect |  |  |  | survival rate (viability) of cancer cells, HL-60 [13]: 107.3; survival rate (viability) of cancer cells, TSGH ([2]; Table 3, drug 10 μM, 72 hours): 81.1; survival rate (viability) of cancer cells, MCF7 ([3]; Table 3, drug 10 μM, 72 hours): 80.4; survival rate (viability) of cancer cells, A375 ([7]; Table 3, drug 10 μM, 72 hours): 77.0; survival rate (viability) of cancer cells, PC3 ([8]; Table 3, drug 10 μM, 72 hours): 89.3; survival rate (viability) of cancer cells, LoVo ([9]; Table 3, drug 10 μM, 72 hours): 94.1; survival rate (viability) of cancer cells, HepG2 ([11]; Table 3, drug 10 μM, 72 hours): 90.4; survival rate (viability) of cancer cells, HCT116 (WT) [12]: 86.2 |
| Cc1[nH]c(=O)c(C#N)cc1-c1ccncc1 [Milrinone (Primacor), Milrinone] | 86.2 |  | 98.5 | 130 | 99 | 90.9 |  | 92 | 90.5 | 92.9 | 0 | significant inhibition effect | 98.5 | 104 | 112 |  |
| Cc1cccc(C)c1N=C1NCCCS1 [Xylazine HCl] |  |  |  |  |  |  |  |  |  |  | 0 | significant inhibition effect |  |  | 116 | viability at 10 µM ([1]; NCI-H1650, Table 3, drug 10 μM, 72 hours): 67.2%; viability at 10 µM ([2]; Table 3, drug 10 μM, 72 hours): 61.5%; viability at 10 µM ([3]; MCF7, Table 3, drug 10 μM, 72 hours): 104%; viability at 10 µM ([4]; Table 3, drug 10 μM, 72 hours): 86.3%; viability at 10 µM ([5]; Table 3, drug 10 μM, 72 hours): 65.1%; viability at 10 µM ([6]; A549, Table 3, drug 10 μM, 72 hours): 71.7%; viability at 10 µM ([7]; A-375, Table 3, drug 10 μM, 72 hours): 63.5%; viability at 10 µM ([8]; Table 3, drug 10 μM, 72 hours): 105%; viability at 10 µM ([9]; Table 3, drug 10 μM, 72 hours): 96.6%; viability at 10 µM ([10]; MKN-45, Table 3, drug 10 μM, 72 hours): 88.7%; viability at 10 µM ([11]; HepG2, Table 3, drug 10 μM, 72 hours): 83.5% |
| CC(C)OC(=O)C(C)(C)Oc1ccc(C(=O)c2ccc(Cl)cc2)cc1 [Fenofibrate (Tricor, Trilipix), Fenofibrate] | 122 | 103 | 78.1 | 84.1 | 98.3 |  | 159 | 105 |  | 83.1 |  |  | 104 | 98.9 | 77.6 |  |
| NC(=O)c1ncn([C@@H]2O[C@H](CO)[C@@H](O)[C@H]2O)c1N [Acadesine] |  | 99.7 | 84.7 | 75.4 | 88.4 | 117 | 99.1 | 94.8 | 80.9 | 81.5 | 0 | significant inhibition effect | 103 | 88.7 | 110 |  |
| CCC(NC(C)C)C(O)c1ccc(O)c(O)c1 (stereo not drawn) [Isoetharine Mesylate] | 91.7 | 88.3 | 103 | 96.6 | 81.6 | 76.7 | 97 | 71.6 | 100 | 91 | 0 | significant inhibition effect | 76.5 | 96.1 |  |  |
| Gabexate mesylate |  |  |  |  |  |  |  |  |  |  | 0 | significant inhibition effect |  |  |  | survival rate (viability) of cancer cells, HL-60 [13]: 117.6; survival rate (viability) of cancer cells, H1650 ([1]; Table 3, drug 10 μM, 72 hours): 69.8; survival rate (viability) of cancer cells, TSGH ([2]; Table 3, drug 10 μM, 72 hours): 70.9; survival rate (viability) of cancer cells, AGS ([4]; Table 3, drug 10 μM, 72 hours): 75.0; survival rate (viability) of cancer cells, A549 ([6]; Table 3, drug 10 μM, 72 hours): 77.3; survival rate (viability) of cancer cells, A375 ([7]; Table 3, drug 10 μM, 72 hours): 77.9; survival rate (viability) of cancer cells, MKN-45 ([10]; Table 3, drug 10 μM, 72 hours): 81.1; survival rate (viability) of cancer cells, HCT116 (WT) [12]: 114.9 |
| NCCCCCC(=O)O [Aminocaproic acid (Amicar), Aminocaproic acid] | 65.4 | 71.4 | 69.2 | 64.8 | 90.4 | 70.3 | 123 | 79.6 | 91.2 | 80.2 | 0 |  |  | 114 | 93 |  |
| O=C(O)/C=C/c1ccc(Cn2ccnc2)cc1 [Ozagrel] | 80.6 | 69.4 | 102 | 98.5 | 77.7 | 77.7 | 74.7 |  | 80.6 | 93.9 | 0 | significant inhibition effect | 91.2 | 102 | 118 |  |
